The series in a line: Loading capacity of filomicelles (PEG PPS) with other immunosuppressives used in lupus. The series is classed as physicochemical. To be noted: drug per mg of filomicelles, FIG. 10. The text has this:
Transmission electron microscopy (TEM) images of loaded and unloaded FMs show no difference in morphology or structure, as shown in FIG. 3.

The structures appear in SMILES notation.

`Cn1cnc([N+](=O)[O-])c1Sc1ncnc2nc[nH]c12` [AZA, azathioprine]: the “loading into filomicelles (PEG-PPS)” value is around 400 µg/mg.

The values above are taken from US11311485B2, “Self-assembled particles for targeted delivery of immunomodulators to treat autoimmunity and cancer” (UNIVERSITY OF MARYLAND, BALTIMORE COUNTY, priority 2018, dated 2022).
